For test [1], the target named is T1, human erythrocyte AChE (Homo sapiens, UniProt P22303). The experiment in a line: biochemical.
Test [2] in a line: ABTS radical cation scavenging activity assay. To be noted: 1 h incubation; for IC50: ABTS•+ 100 μM; for ABTS•+-Scavenging Activity, TEAC: Trolox equivalent antioxidant capacity. On the procedure: Radical scavenging activity of the compounds was assessed using the ABTS radical cation (ABTS^•+) decolorization assay with modifications, described in detail in [30, 32]. ABTS (2,2′-azino-bis-(3-ethylbenzothiazoline-6-sulfonic acid)) was purchased from Tokyo Chemical Industry Co., Ltd. (Tokyo, Japan), potassium persulfate (dipotassium peroxodisulfate), Trolox (6-hydroxy-2,5,7,8-tetramethylchroman-2-carboxylic acid), HPLC-grade ethanol, and DMSO were obtained from Sigma-Aldrich. All tested compounds were dissolved in DMSO.
The reaction was monitored for 1 h with an interval of 1–10 min. Data are given for 1 h of incubation of compounds with ABTS^•+ (100 μM final concentration). The reduction in absorbance was measured spectrophotometrically at 734 nm using xMark UV/VIS microplate spectrophotometer (Bio-Rad, Hercules, CA, USA). Ethanol blanks were run in each assay. Values were obtained from three replicates of each sample and three independent experiments. Standard antioxidant Trolox was used as a reference compound. Trolox equivalent antioxidant capacity (TEAC) values were determined as the ratio between the slopes obtained from the linear correlation of the ABTS radical absorbance with the concentrations of tested compounds and Trolox.

The target in the next test is T2, equine serum BChE (Equus caballus, UniProt P81908).
T2 construct: we used human erythrocyte AChE, equine serum BChE, and porcine liver CES; purchased Sigma-Aldrich; host or cells: equine serum
The test can be described thus: biochemical. Particulars: mean ± SEM, n = 3; read-out: Equine Serum BChE, IC50.

A short description of test [3]: Ferric reducing antioxidant power (FRAP) assay. Set-up: key: ratio of Trolox to test compound concentration giving same FRAP effect. To be noted: Trolox equivalents; compound concentration 20 µM. On the procedure: The ferric reducing antioxidant power (FRAP) assay proposed by Benzie and Strain [106, 107] was modified to be performed in 96-well microplates, as described in detail in [32]. The FRAP reagent contained 2.5 mL of 10 mM TPTZ (2,4,6-tris(2-pyridyl)-s-triazine, Sigma-Aldrich) solution in 40 mM HCl, 2.5 mL of 20 mM FeCl3 (Sigma-Aldrich) in distilled water and 25 mL of 0.3 M acetate buffer (pH 3.6). Aliquots of 10 µL of the tested compound (compounds 3, 5 or reference substance) dissolved in DMSO (0.5 mM) were placed in quadruplicate. Absorbance was measured at the wavelength of 593 nm after 60-min incubation at 37 °C. In each case, Trolox was used as a reference compound to obtain the standard curve and value was calculated with respect to the activity of Trolox and expressed as Trolox equivalents (TE)—the values calculated as the ratio of the concentrations of Trolox and the test compound, resulting in the same effect on ferric reducing activity.

The target in a further test is β-amyloid (1–42) (Aβ42) (Homo sapiens, UniProt P05067). The test can be described thus: Inhibition of Aβ42 self-aggregation, Thioflavin T fluorescence. To be noted: Aβ42 50 µM, compound 100 µM. Type of test: biochemical. On the procedure:
The inhibitory effect of the test compounds toward Aβ42 self-aggregation was determined using the Thioflavin T (ThT) fluorescence method with minor modifications. […] Therefore, the decrease in ThT fluorescence correlates with the activity of studied compounds to inhibit the formation of amyloid aggregates.
A total of 1 mg of lyophilized HFIP-pretreated Aβ42 from rPeptide (Watkinsville, GA, USA) was dissolved in DMSO to obtain a stable initial solution ([Aβ42] = 500 μM), then it was aliquoted and stored at −20 °C.
Then, the samples were incubated for 24 h at 37 °C without stirring in the absence (base level of Aβ42 self-aggregation, control) or presence of the test compounds. Myricetin and propidium iodide were used as references (positive controls). All compounds were used at a concentration of 100 µM. […] Analyses were performed with a FLUOStar Optima microplate reader (LabTech, Ortenberg, Germany). […] Each assay was run in triplicate.

The next test deals with T3, EeAChE PAS (Electrophorus electricus, UniProt O42275).
T3 construct: purchased Sigma-Aldrich type VI-S
The experiment in a line: Propidium iodide displacement from the PAS of EeAChE. In kind it is binding, Electric eel. Particulars: compound concentration 20 µM. As for the experimental part:
The enzyme was Electric eel AChE (EeAChE type VI-S, lyophilized powder, Sigma-Aldrich). We selected this source of AChE for consistency with our other reports and because of the purity, specific activity, and lower cost compared to human AChE.
The assay is based on the high level of fluorescence intensity of propidium iodide bound with AChE decreasing in the presence of test compounds that competitively displace propidium iodide from the AChE PAS [25, 27]. Specificially, EeAChE ([…] final concentration) is incubated with the test compound (20 μM in 1 mM Tris-HCl buffer pH 8.0, 25 °C, for 15 min). Propidium iodide (final concentration 8 μM) is then added for a further 15-min incubation and the fluorescence spectrum is taken (530 nm (excitation) and 600 nm (emission)). The same concentration of propidium iodide in the Tris-HCI buffer was used as the blank. Triplicate determinations were recorded from a FLUOStar Optima microplate reader and results calculated via the following equation:% Displacement = 100 − (IFAChE+ Propidium + inhibitor/IFAChE + Propidium) × 100(1) where IFAChE + Propidium = fluorescence intensity of propidium iodide associated with AChE in the absence of the test compound (taken as 100%), and IFAChE + Propidium + inhibitor = fluorescence intensity of propidium iodide associated with AChE in the presence of the test compound.

The next test relates to porcine liver CES. The test can be described thus: CES inhibition, 4-NPA substrate. Particulars: compound concentration 20 µM. Type of test: biochemical.
In another test the target is T4, AChE (Homo sapiens, UniProt P22303).
T4 construct: we used human erythrocyte AChE, equine serum BChE, and porcine liver CES; purchased Sigma-Aldrich; host or cells: human erythrocytes
The experiment in a line: Kinetic study of AChE inhibition (Lineweaver-Burk). Type of test: biochemical. Particulars: for type of AChE inhibition: Lineweaver–Burk plots; for Ki: read-out: Ki, the competitive component, AChE. On the procedure: (§1) We assessed the mechanisms of AChE and BChE inhibition by performing a thorough analysis of enzyme kinetics. After a 5 min incubation at 25 °C (for temperature equilibration) with three increasing concentrations of inhibitor and six decreasing substrate concentrations, the residual enzyme activity was measured as described above for enzymatic assays.

The target in the next test is T5, BChE (Equus caballus, UniProt P81908).
T5 construct: we used human erythrocyte AChE, equine serum BChE, and porcine liver CES; purchased Sigma-Aldrich; host or cells: equine serum
The experiment in a line: Kinetic study of BChE inhibition (Lineweaver-Burk). In kind it is biochemical. To be noted: for type of BChE inhibition: Lineweaver–Burk plots; for Ki: competitive component; for αKi, BChE: non-competitive component. As for the experimental part:
as §1

For test [4], the target named is T1, human erythrocyte AChE. Particulars: 5d (m = 5) relative to 5a (m = 2).

SMILES strings stand for the structures. “And” between values parts separate entries of the source, which are not always exact repeats. Identical values can stand only once.

β-amyloid (1–42) (Aβ42), sequence (P05067 672-713): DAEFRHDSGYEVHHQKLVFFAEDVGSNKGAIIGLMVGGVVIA
T3 sequence (O42275 24-633): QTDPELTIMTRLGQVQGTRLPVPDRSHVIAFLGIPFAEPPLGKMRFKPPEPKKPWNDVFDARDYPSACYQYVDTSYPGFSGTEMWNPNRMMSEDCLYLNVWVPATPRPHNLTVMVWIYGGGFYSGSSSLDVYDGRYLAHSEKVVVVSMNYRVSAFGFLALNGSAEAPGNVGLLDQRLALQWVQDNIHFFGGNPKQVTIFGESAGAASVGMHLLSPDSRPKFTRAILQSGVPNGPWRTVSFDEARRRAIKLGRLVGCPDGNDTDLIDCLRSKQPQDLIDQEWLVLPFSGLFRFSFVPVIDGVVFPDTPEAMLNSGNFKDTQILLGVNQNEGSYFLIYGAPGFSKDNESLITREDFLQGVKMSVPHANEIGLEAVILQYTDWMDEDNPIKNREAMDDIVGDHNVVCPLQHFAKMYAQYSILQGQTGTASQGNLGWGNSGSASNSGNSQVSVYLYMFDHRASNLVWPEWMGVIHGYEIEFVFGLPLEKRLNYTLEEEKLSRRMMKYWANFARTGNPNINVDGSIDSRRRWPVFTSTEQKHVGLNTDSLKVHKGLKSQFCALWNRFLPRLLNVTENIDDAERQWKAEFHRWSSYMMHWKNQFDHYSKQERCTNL
T5 sequence (P81908 whole entry): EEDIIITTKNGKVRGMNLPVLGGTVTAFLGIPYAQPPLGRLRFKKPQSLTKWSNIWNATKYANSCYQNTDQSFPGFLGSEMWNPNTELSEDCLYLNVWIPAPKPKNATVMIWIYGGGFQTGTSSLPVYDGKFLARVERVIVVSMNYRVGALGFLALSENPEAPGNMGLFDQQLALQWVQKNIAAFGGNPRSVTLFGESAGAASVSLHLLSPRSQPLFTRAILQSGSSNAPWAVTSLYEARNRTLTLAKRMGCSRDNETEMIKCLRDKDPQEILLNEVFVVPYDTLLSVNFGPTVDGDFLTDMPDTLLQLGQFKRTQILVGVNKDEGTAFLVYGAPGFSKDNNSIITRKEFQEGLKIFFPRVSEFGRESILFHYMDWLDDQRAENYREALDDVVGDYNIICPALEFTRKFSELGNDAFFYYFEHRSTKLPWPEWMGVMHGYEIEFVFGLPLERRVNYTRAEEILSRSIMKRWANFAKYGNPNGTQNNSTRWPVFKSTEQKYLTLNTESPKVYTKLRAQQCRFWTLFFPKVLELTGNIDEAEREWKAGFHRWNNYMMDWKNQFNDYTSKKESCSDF
T2 sequence (P81908 whole entry): as above
T4 sequence (P22303 other isoform, or with tags, fused parts or gaps): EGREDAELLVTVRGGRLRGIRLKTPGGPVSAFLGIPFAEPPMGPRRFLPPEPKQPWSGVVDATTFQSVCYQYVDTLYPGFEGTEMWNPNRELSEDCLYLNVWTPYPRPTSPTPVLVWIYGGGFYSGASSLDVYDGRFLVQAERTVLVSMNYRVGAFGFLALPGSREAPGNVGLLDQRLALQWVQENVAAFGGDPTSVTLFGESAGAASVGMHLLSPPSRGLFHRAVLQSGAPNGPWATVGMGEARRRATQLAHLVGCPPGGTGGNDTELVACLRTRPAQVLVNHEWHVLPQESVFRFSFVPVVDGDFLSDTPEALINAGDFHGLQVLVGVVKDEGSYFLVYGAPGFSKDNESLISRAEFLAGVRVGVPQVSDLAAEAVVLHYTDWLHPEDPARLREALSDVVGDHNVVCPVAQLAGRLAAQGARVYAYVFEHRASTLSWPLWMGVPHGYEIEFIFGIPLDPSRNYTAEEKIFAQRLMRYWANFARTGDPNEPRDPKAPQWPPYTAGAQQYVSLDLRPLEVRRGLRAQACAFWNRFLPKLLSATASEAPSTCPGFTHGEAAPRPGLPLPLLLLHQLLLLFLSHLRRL
T1 sequence (P22303 other isoform, or with tags, fused parts or gaps): as above

For `S=C(NCCNC(=S)Nc1c2c(nc3c1CCC3)CCCC2)Nc1c2c(nc3c1CCC3)CCCC2` [Compound 5a, 2,2′-Ethane-1,2-diylbis[N-(2,3,5,6,7,8-hexahydro-1H-cyclopenta[b]quinolin-9-yl)(thiourea)]], the IC50 against human erythrocyte AChE [1] turned out to be 96 ± 3.7 µM; in [2] it was 7.6 ± 0.4 µM; at equine serum BChE, 4.08 ± 0.23 µM. Moreover, in test [2], the “ABTS•+-Scavenging Activity, TEAC” value was found to be 2.1 ± 0.07. In addition, the “FRAP, TE” value in test [3] is listed as 0.52 ± 0.04. This compound displayed an inhibition at 100 µM against β-amyloid (1–42) (Aβ42) of 2.9 ± 0.2%. Also, on EeAChE PAS, the “Displacement of Propidium from EeAChE PAS” value (from here on “Displacement of Propidium”) was 7.6 ± 0.6%. The “Porcine Liver CES, (%) inhibition” value in the test with porcine liver CES is on record as 4.3 ± 0.2%.
With `S=C(NCCCCCCNC(=S)Nc1c2c(nc3c1CCC3)CCCC2)Nc1c2c(nc3c1CCC3)CCCC2` [Compound 5e], the half-inhibitory concentration (IC50) at human erythrocyte AChE [1] was determined as 4.08 ± 0.46 µM; in test [2], 10.9 ± 0.7 µM; at equine serum BChE, 0.769 ± 0.02 µM. For the same compound, the “ABTS•+-Scavenging Activity, TEAC” value in test [2] was 1.5 ± 0.07. The “FRAP, TE” value in test [3] is given as 0.49 ± 0.01. Besides, the inhibition at 100 µM at β-amyloid (1–42) (Aβ42) was 14.3 ± 1.1%. Further, the “Displacement of Propidium” value at EeAChE PAS was 11.1 ± 0.9%. In addition, the “Porcine Liver CES, (%) inhibition” value with porcine liver CES is given as 10.3 ± 1.0%.
`O=C(CNCCNCC(=O)Nc1c2c(nc3c1CCC3)CCCC2)Nc1c2c(nc3c1CCC3)CCCC2` [Compound 3a] came in with a 50% inhibitory concentration (IC50) on human erythrocyte AChE [1] of 1.64 ± 0.08 µM. Moreover, in test [2], the concentration for half-maximal inhibition (IC50) was about 180 µM and the “ABTS•+-Scavenging Activity, TEAC” value stood at 0.10 ± 0.004. In addition, on equine serum BChE, the IC50 was found to be 0.11 ± 0.004 µM. In addition, at AChE, the “αKi, the non-competitive component, AChE” value was 2.62 ± 0.13 µM; the “type of AChE inhibition” value is “mixed-type inhibition”; the Ki stood at 0.772 ± 0.047 µM. At EeAChE PAS, the “Displacement of Propidium” value is 14.4 ± 1.2%. At BChE, the “type of BChE inhibition” value is recorded as “mixed-type inhibition”; the inhibition constant (Ki) came out at 0.0578 ± 0.0025 µM; the “αKi, BChE” value was 0.189 ± 0.007 µM. The “Porcine Liver CES, (%) inhibition” value with porcine liver CES is 4.8 ± 0.4%.
With `S=C(NCCCCCCCNC(=S)Nc1c2c(nc3c1CCC3)CCCC2)Nc1c2c(nc3c1CCC3)CCCC2` [Compound 5f], the IC50 was 6.28 ± 0.46 µM against human erythrocyte AChE [1], 12.4 ± 0.8 µM in [2] and 1.18 ± 0.08 µM on equine serum BChE. Further, the “ABTS•+-Scavenging Activity, TEAC” value in [2] is recorded as 1.2 ± 0.05. In addition, in test [3], the “FRAP, TE” value is on record as 0.55 ± 0.01. Also, at β-amyloid (1–42) (Aβ42), the inhibition at 100 µM amounted to 3.7 ± 0.3%. The “Displacement of Propidium” value on EeAChE PAS is on record as 2.5 ± 0.2%. In addition, the “Porcine Liver CES, (%) inhibition” value in the test on porcine liver CES is 5.8 ± 0.3%.
Compound `S=C(NCCCCCNC(=S)Nc1c2c(nc3c1CCC3)CCCC2)Nc1c2c(nc3c1CCC3)CCCC2` [Compound 5d] gave a concentration for half-maximal inhibition (IC50) at human erythrocyte AChE [1] of 4.01 ± 0.13 µM. For the same compound, in test [2], the IC50 came to 10.9 ± 0.7 µM and the “ABTS•+-Scavenging Activity, TEAC” value stood at 1.6 ± 0.06. Further, the 50% inhibitory concentration (IC50) at equine serum BChE was 0.76 µM and 0.758 µM. At AChE, the “αKi, the non-competitive component, AChE” value worked out at 7.75 ± 0.11 µM; the “type of AChE inhibition” value is on record as “mixed-type inhibition”; the Ki is 1.18 ± 0.08 µM. Moreover, the “FRAP, TE” value in [3] stood at 0.45 ± 0.03. This compound yielded an inhibition at 100 µM against β-amyloid (1–42) (Aβ42) of 12.8 ± 1.1%. On EeAChE PAS, the “Displacement of Propidium” value came out at 11.2 ± 1.0%. Besides, at human erythrocyte AChE [4], the “enhancement of anti-AChE activity, fold” value was found to be 24 fold. At BChE, the “type of BChE inhibition” value is listed as “mixed-type inhibition”; the affinity, expressed as Ki, was 0.34 ± 0.012 µM; the “αKi, BChE” value is 1.85 ± 0.06 µM. Moreover, in the test on porcine liver CES, the “Porcine Liver CES, (%) inhibition” value is given as 12.8 ± 1.1%.

In general, IC50 refers to the point on the concentration scale where inhibition reaches its midpoint. The inhibition is how much of the control response was suppressed. What is called Ki is a dissociation constant, usually derived from enzyme kinetics or from competition with a known ligand.

The record behind these values is article PMC8839189, “Bis-Amiridines as Acetylcholinesterase and Butyrylcholinesterase Inhibitors: N-Functionalization Determines the Multitarget Anti-Alzheimer’s Activity Profile” (Molecules, 2022).
